# Measurements taken from patent publication US20250152602A1, “MODULATION OF AVERSIVE AND SALT TASTES” (California Institute of Technology, priority 2023, published 2025).
# No end group written: not given here.
# Columns and labels:
# SFO^Ptger3 neurons [1] = assay: Fiber photometry calcium recording from SFO^Ptger3 neurons (GCaMP7s); assay type: in vivo, mice; conditions: for calcium response of SFO^Ptger3 neurons to control stimuli (normalized ΔF/F): i.p., mannitol 2 M, 10 ml per kg BW, ghrelin 10 μg, LiCl 0.15 M, 15 ml per kg BW
# Method: Calcium measurement from SFO^Ptger3 neurons: Mice were headfixed to eliminate the interference from movement. Photometry recording was performed using a commercial photometry system (Neurophotometrics, FP3002). Two LED of different wavelength (470 nm and 415 nm) were bandpass filtered and a patch cord (0.48 NA, Doric lenses) was attached to the photometry system via a 20× objective. The sampling rate was fixed at 40 Hz. Data were acquired with Bonsai (Neurophotometrics) by drawing a region of interest and calculating the mean pixel value, and then were exported to MATLAB for further analysis. The isosbestic signal (415 nm) was fit with a biexponential model and was then linearly scaled to the calcium signal (470 nm). The ΔF/F was calculated as (raw 470-nm signal−fitted 415-nm signal)/(fitted 415-nm signal). For all sessions, stimulus time was recorded through a customized TTL button. During PGE2 activation experiment (FIG. 7C), mice were given PGE2 at a dose of 1 mg per kg BW or DMSO in 100 μl PBS subcutaneously. During other internal-state treatments, mice were exposed to the following stimuli via intraperitoneal injection: 2M mannitol (10 ml per kg BW); […] of ghrelin (in 100 μl PBS), and 0.15M LiCl (15 ml per kg BW). All analysis used the average of 5 min prior to the stimulus as a baseline mean. Normalized ΔF/F was calculated by subtracting the baseline ΔF/F from the mean ΔF/F between 100 and 1500 sec after the stimulus.
# circulating PGE2 = conditions: formalin-induced inflammation
# Method: Videos were taken for 1 hr following the injection and analyzed for the time mice spent licking the dorsal hindpaw. Mice with more than 30-sec licking paw time in the first 5 min after injection were used for video analysis. Each mouse was subjected to formalin injection twice: in one hind paw under sated conditions, and another under either sodium depleted or photostimulated conditions. To test the effect of optogenetic stimulation, light stimulation was given at 20 Hz with a 1-sec on 3-sec off paradigm for 60 min.
# Mice were anaesthetized with isoflurane. Blood was collected via heart puncture into EDTA-coated tubes (BD Microtainer, 365974) and kept on ice. Plasma was then separated by centrifugation at 1,500 g for 20 min. ELISA assays were performed following the protocols of PGE2 ELISA kit (Cayman Chemical, 514531), serotonin ELISA kit (Eagle Bio, SER39-KO1), and progesterone ELISA kit (Cayman Chemical, 582601).
# mice = conditions: thirst; formalin in dorsal hindpaw
# Method: Formalin-induced tolerance: Mice were injected with formalin or PBS in the dorsal hindpaw 45-60 min prior to the lick access. Osmotic thirst was induced 10-15 min prior to the lick access. Lick number was recorded for 30 min.
# SFO/OVLT^Ptger3 neurons = assay: Chemogenetic inhibition (AAV-DIO-hM4Di + CNO) of LT^Ptger3 neurons, 30-min consumption assay; assay type: in vivo, mice
# Method: Surgery procedures were performed according to methods known in the art. Briefly, ketamine (1 mg/ml) and xylazine (10 mg/ml) in saline were injected intraperitoneally at a dose of 10 ml per kg body weight (BW) for anaesthesia. Ketoprofen was injected subcutaneously at a dose of 5 ml per kg BW. Surgery was performed with a stereotaxic apparatus (Narishige, SR-5M-HT) on a heating pad at 37° C. Virus was delivered with a microprocessor-controlled injection system (World Precision Instruments, Nanolitre 2000) at 100 nl/min. The following coordinates were used: for pre-LC: anterior-posterior (AP), 9,000, medial-lateral (ML), 1,000, ventral-dorsal (VD), 3,800; for SFO: AP, 4,000, ML, 0, VD, 2,500; for OVLT: AP, 2,475, ML, 0, VD, 4,750; for dorsal part of the NAc medial shell: AP, 2,100, ML, 700, VD, 4,000. For optogenetic experiments, virus was delivered unilaterally at a volume of 120-200 nl. Implants were made by gluing a 200-μm fibre bundle (Thorlabs, FT200EMT) to a ceramic ferrule (Thorlabs, CF230-10) with epoxy. The fibre implant was placed 200 μm above the virus injection site. For fiber photometry experiments, virus was delivered at a volume of 150-200 nl (calcium measurement) or 500 nl (dopamine measurement) per region. A 400-μm fiber bundle (Thorlabs, FT400UMT) was used instead. For chemogenetic inhibition experiments, virus was delivered at 180-200 nl per region. For ablation experiments, virus was delivered at 200-250 nl per region. For local knockdown experiments, virus was delivered at 150-200 nl per region. At the end of experiments, all animals were euthanized for histological examination.
# For 30-min access assay, mice were presented with 1 bottle for 30 min and consumption was measured.
# For chemogenetic experiments, clozapine N-oxide (CNO) was administered intraperitoneally at doses of 10 mg per kg BW for inhibition or 1 mg per kg BW for activation 20 min before the consumption trial started. Pure water instead of saline was used as vehicle to avoid sodium repletion.
# [2] = test system: dopamine release in the nucleus accumbens (NAc); assay: Dopamine release in the NAc (dLight1.3b fiber photometry) during high-salt consumption; assay type: in vivo, mice
# Method: Dopamine measurement: Mice were freely moving in the chamber with gustometer. Bulk fluorescence signals were collected with a fiber photometry setting as described with the light of 405 nm and 490 nm. The ΔF/F was calculated as (raw 490-nm signal−fitted 405-nm signal)/(fitted 405-nm signal). Mice were induced with osmotic thirst 10-15 min, or sodium depletion 24 hr before the access of 500 mM NaCl. For wild-type mice, under PGE2 activation condition, mice were injected PGE2 at a dose of 1 mg per kg BW subcutaneously 1 hr before the shutter open. For Ptger3cre mice, mice were injected with either CNO or vehicle 20 min before the shutter opened. Lick number was recorded simultaneously with the fluorescence signal collection. The first lick bout was identified with the lick rate more than 3.5 and lick number more than 5, with less than 1-sec interval to the subsequent lick. If no lick bout was detectable (observed with osmotic thirst), any first lick event was included into the data. All baseline signals were calculated by averaging signals between 10-20 sec prior to the first lick. Response amplitude (normalized ΔF/F) was calculated by subtracting the baseline ΔF/F from the mean ΔF/F between 0 and 10 sec after the lick initiated.
# prostaglandin production = assay: NSAIDs-induced loss-of-tolerance (lick number, 30 min); assay type: in vivo, mice; conditions: sodium depletion; ibuprofen 1 mg per ml drinking water three days plus aspirin 40 mg per kg BW i.p., given together
# Method: NSAIDs-induced loss-of-tolerance: NSAIDs were used to suppress PGE2 production. Mice were given water supplemented with ibuprofen (1 mg per ml) for three days. On the second day, mice were injected with furosemide to induce sodium depletion. On the third day, aspirin (40 mg per kg BW) was injected intraperitoneally 1-2 hr prior to the lick access. Lick number was recorded for 30 min.
# Ptger3 = assay: PGE2-induced behavior: high-salt consumption / aversive taste tolerance (gustometer lick assay); assay type: in vivo, mice
# Method: Prostaglandin: PGE2 powder was diluted in DMSO at 50 mg/ml as stock. For behavioral assay, we used the final concentration of 1 mg per kg BW in PBS containing 1.7% DMSO (v/v). The same vehicle with DMSO was used as control.
# All assays were performed in a custom gustometer (Dialog Instruments). All animals were at least trained with osmotic thirst and sodium depletion prior to the behavior trials. Animals were trained to drink at least 200 licks for 500 mM NaCl in 30 min under sodium depletion. Generally, two training sessions with sodium depletion are sufficient to achieve this criterion. […] To prevent this, all tastants at lower concentrations were exposed to animals before experiment. For tolerance tests, one-bottle consumption assay was used in order to avoid preference development during the session.
# SFO = assay: Fos immunofluorescence after subcutaneous PGE2 injection; assay type: in vivo, mice
# Method: PGE2-induced behavior: PGE2 was injected subcutaneously at a dose of 1 mg per kg BW. Animals had no food or water for 15-90 min before behavioral experiments. For immunohistochemistry, PGE2 was injected at a dose of 3 mg per kg BW and maintained with no food or water for 60 min before euthanasia.
# Mice were euthanized with CO2 and perfused with PBS and 4% paraformaldehyde. Extracted mouse brains were fixed overnight at 4° C. in 4% PFA and sectioned coronally to 100-μm slides via vibratome (Leica, VT-1000 S). The sections were blocked (10% donkey serum, 0.2% Triton X-100 in PBS) for 1 hr at room temperature and incubated with primary antibody at 4° C. overnight. The following primary antibodies were used: rabbit anti-FOS (1:500), sheep anti-Foxp2 (1:2,000), chicken anti-GFP (1:3,000), rat anti-mCherry (1:500), and goat anti-nNos (1:500). The sections were washed three times with PBS and incubated with the secondary antibody (1:500; Jackson Immunoresearch) and DAPI ([…]) for 4 hr under room temperature. After three times wash with PBS, the sections were mounted on the glass slide. All slides were imaged with confocal microscope (Leica, TCS SP8) or slide scanner (Olympus, BX61VS).
# SFO^Ptger3 neurons [3] = assay: Salt tolerance induced by SFO^Ptger3 photostimulation with or without amiloride; assay type: in vivo, mice
# Method: (§1) For 5-sec brief access assay, mice were presented with 1 bottle of solution for 30 sec per trial for maximum waiting time before the first lick, and 40 sec between trials. After an initial lick, animals were allowed to drink the solution for additional 5 sec before a shutter closed. To avoid taste conditioning effect, animals were tested with only one solution per day. After testing aversive solutions, bitter and high salt, animals sometimes refused to drink any solution. These animals were retrained with water and low salt until their behavioral level recovers to our criteria stated above.
# (§2) For optogenetic activation, 473-nm laser-pulse sequences were delivered via an optic cable (Doric Lenses, MFP—FC-ZF) with pulse generators (World Precision Instruments, SYS-A310 or Quantum composers, Sapphire 9200). The laser intensity was maintained at 10 mW at the tip of the fiber. […] For 5-sec brief access assay, the light stimulation was given at 20 Hz throughout the trial except the paradigm in FIG. 3C.
# pre-LC^Pdyn neurons = assay: High-salt licks during pre-LC^Pdyn photostimulation with or without amiloride; assay type: in vivo, mice
# Method: as §1, §2
molecule,measurement,setting,value
OC[C@@H](O)[C@@H](O)[C@H](O)[C@H](O)CO [mannitol],calcium response of SFO^Ptger3 neurons to control stimuli (normalized ΔF/F),SFO^Ptger3 neurons [1],no activation
C=O [formalin],circulating PGE2 levels,circulating PGE2,increased the PGE2 levels
same,high salt tolerance (500 mM NaCl),mice,partially induced high salt tolerance
same,water intake,mice,unaffected
"C[N+]1([O-])CCN(C2=Nc3cc(Cl)ccc3Nc3ccccc32)CC1 [CNO, clozapine N-oxide]",tolerance toward aversive salt (500 mM NaCl),"SFO/OVLT^Ptger3 neurons; hypovolemic state, hM4Di in SFO/OVLT, CNO i.p.",drastically suppressed tolerance
same,solute intake (water or high salt),"SFO/OVLT^Ptger3 neurons; osmotic thirst, LT^Ptger3 inhibition",no effect
same,tolerance of low salt with quinine or KCl,"SFO/OVLT^Ptger3 neurons; sodium depletion, LT^Ptger3-inhibited mice",no longer tolerated
same,tolerance of low salt with KCl or quinine,"SFO/OVLT^Ptger3 neurons; sodium depletion, only SFO^Ptger3 neurons inhibited (hM4Di in SFO)",blunted tolerance
same,tolerance toward aversive salt,"SFO/OVLT^Ptger3 neurons; sodium-depleted state, hM4Di in SFO/OVLT, CNO i.p. 10 mg per kg BW",drastically suppressed tolerance
same,dopamine signals in the NAc (dLight1.3b),"[2]; hM3Dq in SFO^Ptger3 neurons, CNO i.p. 1 mg per kg BW vs vehicle, high-salt ingestion",greatly enhanced
CC(=O)Oc1ccccc1C(=O)O [aspirin],salt tolerance (high salt),prostaglandin production,significantly reduced salt tolerance
"ghrelin (GSSFLSPEHQRVQQRKESKKPPAKLQPR; ends and bridges not checked; UniProt Q9UBU3 24-51, looked up) [control stimulus for hunger]",calcium response of SFO^Ptger3 neurons to control stimuli (normalized ΔF/F),SFO^Ptger3 neurons [1],no activation
[Cl-].[Li+] [LiCl],calcium response of SFO^Ptger3 neurons to control stimuli (normalized ΔF/F),SFO^Ptger3 neurons [1],no activation
"CCCCC[C@H](O)/C=C/[C@H]1[C@H](O)CC(=O)[C@@H]1C/C=C\CCCC(=O)O [PGE2, Prostaglandin E2]",calcium dynamics of SFO^Ptger3 neurons (normalized ΔF/F),SFO^Ptger3 neurons [1]; subcutaneous PGE2 1 mg per kg BW vs vehicle,time-locked calcium increases
same,PGE2-mediated high-salt tolerance,Ptger3; Ptger3 KD animals,largely abolished
same,PGE2-mediated high-salt tolerance,Ptger3; Ptger3^Cre/Cre animals,largely abolished
same,salt tolerance (500 mM NaCl consumption),"Ptger3; osmotic thirst, wild-type or Ptger3^Cre/wt, PGE2 s.c. 1 mg per kg BW",increased salt tolerance
same,appetite (high-salt consumption),"Ptger3; sated conditions, PGE2 s.c.",did not induce any appetite
same,Fos immunofluorescence signals in the SFO,"SFO; peripheral (subcutaneous) PGE2 3 mg per kg BW, Ptger3-dependent",strong Fos immunofluorescence signals
same,Fos signal in the pre-LC,"SFO; subcutaneous PGE2, scramble- and Ptger3-shRNA-injected mice",No Fos signal
same,high-salt consumption during dLight recording,"[2]; thirsty mice, subcutaneous PGE2 1 mg per kg BW",increased high-salt consumption
same,dopamine release in the NAc (dLight1.3b),"[2]; thirsty mice, subcutaneous PGE2, 500 mM NaCl",enhanced dopamine release
N=C(N)NC(=O)c1nc(Cl)c(N)nc1N [amiloride],SFO^Ptger3-mediated salt tolerance,SFO^Ptger3 neurons [3],no effect
same,sodium consumption (500 mM NaCl licks) induced by pre-LC^Pdyn photostimulation,pre-LC^Pdyn neurons,no longer induced sodium consumption
CC(C)Cc1ccc(C(C)C(=O)O)cc1 (stereo not shown) [ibuprofen],salt tolerance (high salt),prostaglandin production,significantly reduced salt tolerance
